Six compounds from patent US11160794B2, “Methods for treating congenital disorders of glycosylation” (Maggie's Pearl, LLC, priority 2018, dated 2021) can be followed below.

For test [1], the system named is SEC53 variant (pmm2 mutant) yeast. The test can be described thus: Yeast growth rescue of SEC53 variant strains (validation of drug screen hits). The class given is cell-based. The note with it: for growth rescue/improvement: maximum dose/effect. The method, then:
All strains used herein are in S288c background. Strains were grown in Synthetic Complete (“SC”) or SC drop out media (Sunrise)+2% dextrose at 30° C. unless otherwise noted. Standard genetic procedures of transformation and tetrad analysis were followed to construct strains. SEC53 rescue plasmid (pPL1) was generated by cloning the SEC53 promoter, open reading frame, and terminator sequences into the episomal pRS316 containing the URA3 selectable marker. SEC53 variants were generated by cloning the relevant promoter, GFP or SEC53 gene, and CYC1 terminator sequences into an integrating plasmid containing the LEU2 selectable marker and integrated at the SwaI restriction site into the HO locus. For PMM2 variants, the SEC53 ORF was replaced with a codon-optimized PMM2. Plasmids were generated by Next Interactions or GenScript. Strains were generated by Next Interactions or well-known techniques.
Cells from plates were resuspended in SC media to OD600=1.0, then serial diluted into 50 μL SC+FOA media in 384-well plates at 10^−1, 10^−2, and 10^−3. Plates were incubated at 30° C. and absorbance reading at […] were measured by a plate reader (Molecular Devices SpectraMax M3) at the indicated time points. Plates were vortexed briefly to resuspend cells prior to plate readings. 5-floroortic acid was purchased from US Biological and used at a concentration of 1 mg/L.
125 nL of compounds or DMSO were dispensed into 384-well plates using the Echo acoustic dispenser (LabCyte) to achieve a final concentration of 25 μM. 50 μL of 10^−2 dilution of an OD600=1.0 or 0.5 yeast cell suspensions were dispensed into the 384-well plates containing compounds or DMSO with a MultiFlo automated dispenser (Biotek). Plates were covered and incubated at 30° C. for 16-21 hours until OD600 reaches ˜0.8. Plates were vortexed briefly to resuspend cells prior to reading.
MicroSource Spectrum compounds were reordered from MicroSource Discovery Systems and resuspended in DMSO. 5-125 nL compounds or DMSO were dispensed into 384-well plates and 50 μL of yeast cell suspensions or media were dispensed by multichannel pipettes to achieve the desired concentration. Plates were covered and incubated at 30° C. for 16-23 hours until OD600 reaches ˜0.8. Plates were vortexed briefly to resuspend cells prior to plate readings.
pACT1-F126L, pSEC53-V238M, and pSEC53-F126L haploids and pACT1-F126L/pACT1-R148H, pSEC53-V238M/pSEC53-R148H, and pSEC53-F126L/pSEC53-R148H heterozygous diploids were advanced to a high-throughput drug screen. Screening was done in a 2,560 compound MicroSource Spectrum library collection consisting of FDA approved drugs, bioactive tool compounds, and natural products. Each strain was screened in duplicate and in 384-well plates, with each plate containing 32 wells of the negative control (no drugs) and 24 wells of the positive controls (wild type cells). […] Additionally, there is good correlation between replicates (correlation >0.4 for all panels). With a Z-score cutoff of 2.0, we initially identified six compounds that may be promising and their ability to rescue growth is conserved between the haploid and diploid strains.
These initial hits were further studied for validation. […] At the maximum dose tested, alpha-cyano-4-hydroxycinnamic acid (Compound 1) rescues the F126L allele by 17.7% in haploid and 24.5% in diploid cells.

Test [2] has as its system PMM2. The test can be described thus: PMM2 enzymatic assay on lysates of compound-treated fibroblasts. The note with it: for effect on PMM2 enzymatic activity: human fibroblasts GM20942 (F119L/R148H as printed), 10 and 15 μM, 24 and 48 hours; for PMM2 enzyme activity: above described cell models. The class given is cell-based, human. How it is done: Cells (WT and PMM2 (GM20942-R141H/F119L) compound heterozygous fibroblasts) were seeded at 45 cells/μL (48 hours) and 60 cells/μL (24 hours) in 96 well plates. Compounds were added while seeding cells. The cells were incubated with the tested compounds for 24 and 48 hours (2 different plates, at 10 and 15 μM). Cells were washed twice with phosphate buffer solution. Cell extracts were prepared by adding 10 μL homogenization buffer (20 mM Hepes, 25 mM KCl, 1 mM dithiothreitol, 10 μg/mL each leupeptin and antipain) into each well. The plate was frozen at −80° C. and thawed (this step was repeated two times). Contents of the well were then transferred to the next well, frozen, and thawed. The previous two steps were repeated again to obtain 3× protein. The plate was centrifuged at 4000 rpm for 10 min. 1 μL of sample was taken for Qubit protein quantification, and assay buffer was added into these wells. The plate was incubated at 37° C., and readings were taken every 30 mins.
PMM2 enzymatic activities were assayed spectrophotometrically at 340 nm by the reduction of NADP+ to NADPH in a reaction mixture incubated at 30° C. for 60 mins in a 96-well plate. Cell lysates were added to 200 μL volume in the following reaction: 50 mM HEPES, pH 7.1, 5 mM MgCl2, 0.5 mM NADP+, 10 μg/mL yeast glucose-6-phosphate dehydrogenase, 20 μM glucose 1,6-bisphosphate, 200 μM mannose 1-phosphate, 10 μg/mL phosphoglucose isomerase, and […]. Glucose 1,6-bisphosphate was used as an activator of PMM2 activity. NADPH formation was calculated from absorbance at 340 nm using the Beer's Law (absorbance=εLc).
A PMM2 enzymatic assay was performed to determine whether the expression level of the variants correlate with the enzymatic activity in the cell. To do this, phosphomannose mutase (PMM) activity was assayed by measuring the reduction of NADP+ to NADPH spectrophotometrically at 340 nm with a plate reader according to methods known in the art. This is achieved by a series of four reactions shown in Scheme 1.
Mannose-1-phosphate and NADP are provided as substrates for the reactions along with phosphomannose isomerase, phosphoglucose isomerase, glucose-6-phosphoate dehydrogenase, and PMM2 from the protein lysate. Additionally, glucose 1,6-bisphosphate is used as an activator of PMM2 activity.
To determine whether these compounds rescue growth by increasing PMM2 enzymatic activity, human fibroblast cells (GM20942) containing the F119L/R148H heterozygous mutations and wild type fibroblast cells were treated with each compound. The cell lysates were subjected to the PMM2 enzymatic reaction.

For test [3], the system named is Pmm-2 F119L homozygous animals. The test can be described thus: Chemical stressor exposure of Pmm-2 mutant worms in liquid culture. The format is in vivo, nematode (worms). The note with it: increasing concentrations. From the text: Because an underlying defect in glycosylation may be manifested when subjected to external chemical stressors, Pmm-2 F119L homozygous animals were subjected to Tunicamycin and Bortezomib drug exposures. Tunicamycin is an inhibitor of N-linked glycosylation and Bortezomib (Bzb) is an irreversible inhibitor of the proteasome. It was contemplated that either or both drugs would affect the Pmm-2 mutants differently compared to wild type (“WT”).

[4] abbreviates: pACT1-F126L/R148H heterozygous diploid cells.

Regarding `N#C/C(=C\c1ccc(O)cc1)C(=O)O` [Compound 1, α-cyano-4-hydroxycinnamic acid], the “rescue of growth of SEC53 alleles” value in test [1] (haploid and heterozygous diploid cells, dose response) is “consistent and dose-dependent rescues”. Further, the growth rescue/improvement is recorded as 17.7% in test [1] (pACT1-F126L haploid cells) and 24.5% in test [1] (setting [4]). Further, the “effect on PMM2 enzymatic activity” value in test [2] was “rescues the enzymatic activity”.

Take Tunicamycin: the “growth of Pmm-2 mutants compared to wild type under drug exposure” value in test [3] is “no major differences in growth”.

Epalrestat [reference compound]: the “rescue of yeast growth defect” value in test [1] (above described cell models) was “rescued yeast growth defect”. In test [2], the PMM2 enzyme activity entry was “increase PMM2 enzyme activity”.

With `CC(C)C[C@H](NC(=O)[C@H](Cc1ccccc1)NC(=O)c1cnccn1)B(O)O` [Bzb, Bortezomib], the “growth of Pmm-2 mutants compared to wild type under drug exposure” value in test [3] is “delayed growth”.

In the case of `Cc1ccc(C(=O)Nc2ccc(S(=O)(=O)O)c3cc(S(=O)(=O)O)cc(S(=O)(=O)O)c23)cc1NC(=O)c1cccc(NC(=O)Nc2cccc(C(=O)Nc3cc(C(=O)Nc4ccc(S(=O)(=O)O)c5cc(S(=O)(=O)O)cc(S(=O)(=O)O)c45)ccc3C)c2)c1` [suramin hexasodium], the growth rescue/improvement was 6.7% in test [1] (pACT1-F126L haploid cells) and 22.6% in test [1] (setting [4]). The growth improvement in test [1] (pSEC53-F126L haploid cells) is listed as 24.5%; in test [1] (pSEC53-F126L/R148H heterozygous diploid cells) it was 47.4%; in test [1] (pSEC53-V238M haploid cells) it was 16.1%; in test [1] (pSEC53-V238M/R148H heterozygous diploid cells), 38.9%. Further, in test [2], the “effect on PMM2 enzymatic activity” value is listed as “no discernible effect”.

Regarding `CNc1ccccc1C(=O)N1CCc2c([nH]c3ccccc23)C1=O` [rhetsinine, Rhetsinine], the PMM2 enzyme activity entry in test [2] is “increase PMM2 enzyme activity”.
